Reference: patent US20260206761A1, “HETEROARYL-TRIAZOLE COMPOUNDS AS PESTICIDES” (Bayer Aktiengesellschaft, priority 2019, published 2026)

What was measured:
Format in all cases: in vivo
[1] = tested on: Rhipicephalus microplus larvae (strain Parkhurst, resistant against synthetic pyrethroids); assay: Rhipicephalus (Boophilus) microplus in-vitro contact test, larval cattle tick; settings: after 48 hours, read-out: activity (efficacy: larvae dead or moribund); for pest or weed control at 100 g/ha: application rate 1 pg/cm^2 (=100 g/ha); for pest or weed control at 500 g/ha: application rate 5 pg/cm^2 (=500 g/ha)
Method in brief: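 Larvae (20-50 per tube) exposed to dry compound film on glass tube walls, 5 μg/cm^2 at 900 ppm, applied from acetone. After 48 h at 27° C./85% RH, tubes tapped and negative geotaxis scored; efficacy as percent dead or moribund larvae.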

[2] = tested on: adult engorged female ticks (Rhipicephalus microplus); assay: Rhipicephalus (Boophilus) microplus injection test; settings: 168 h, egg deposition after 7 days, read-out: activity (efficacy: infertile eggs); for pest or weed control at 4 pg: application rate 4 pg/animal; for pest or weed control at 0.02 mg: application rate 20 μg/animal
Method in brief: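 Compound in DMSO (10 mg per 0.5 mL, then diluted with DMSO to test concentration); 1 μL injected into the abdomen of each of five engorged females, then held in a climate chamber. Fertile egg deposition checked at 7 days; efficacy 100% = all eggs infertile, 0% = all fertile.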

[3] = tested on: adult unfed cat fleas (Ctenocephalides felis); assay: Ctenocephalides felis oral test; settings: 48 h, read-out: activity (mortality)
Procedure: Ctenocephalides felis—Oral Test
Solvent: dimethyl sulfoxide
To produce a suitable preparation of active compound, 10 mg of active compound are dissolved in 0.5 mL solvent, and the concentrate is diluted with cattle blood to the desired concentration.
Approximately 20 adult unfed cat fleas (Ctenocephalides felis) are placed in flea chambers. The blood chamber, sealed with parafilm on the bottom, are filled with cattle blood supplied with compound solution and placed on the gauze covered top of the flea chamber, so that the fleas are able to suck the blood. The blood chamber is heated to 37° C. whereas the flea chamber is kept at room temperature.
After 2 days mortality in % is determined. 100% means all the fleas have been killed; 0% means none of the fleas have been killed.

[4] = tested on: adult brown dog ticks (Rhipicephalus sanguineus); assay: Rhipicephalus sanguineus in-vitro contact test, adult brown dog ticks; settings: after 48 hours, read-out: activity (efficacy: ticks dead or moribund); for pest or weed control at 100 g/ha: application rate 1 pg/cm^2 (=100 g/ha); for pest or weed control at 5 µg/cm2, 500 g/ha: application rate 5 μg/cm^2 (=500 g/ha)
Method in brief: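 Efficacy is % of adult ticks dead or moribund 48 h after confinement at room temperature in tubes wall-coated from acetone (5 μg/cm² at 900 ppm). Scoring by heat challenge at 45-50 °C up to 5 min; immotile or uncoordinated ticks failing to climb count as affected.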

[5] = tested on: larvae of the banded cucumber beetle (Diabrotica balteata); assay: Diabrotica balteata spray test; settings: 168 h, application rate 100 g/ha (=32 pg/well), after 7 days, read-out: activity (efficacy: seedlings grown)
Method in brief: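 Read-out is % efficacy at day 7, 0% meaning no seedling growth and 100% growth equal to uninfested untreated controls. Test solutions (acetone/DMF concentrate diluted with water carrying 1000 ppm emulsifier) were sprayed onto 1-day-germinated wheat seeds, 5 per well, before infestation with 10-20 larvae.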

[6] = tested on: green peach aphid (Myzus persicae); assay: Myzus persicae oral test; settings: 120 h, application rate 4 ppm, after 5 days
Method in brief: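 Readout: % mortality at day 5, where 100% = all aphids dead and 0% = none dead. Feeding via parafilm membrane over compound in IPL41 medium (33%+15% sugar); mixed-age population. Stock in acetone (1:100 w/w), water-diluted.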

[7] = tested on: fall armyworm larvae (Spodoptera frugiperda); assay: Spodoptera frugiperda spray test; settings: 168 h, read-out: activity (mortality)
Method in brief: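 Larvae of fall armyworm placed on dried maize leaf sections previously sprayed with emulsified compound (acetone/DMF solvent, water with 1000 ppm emulsifier). Percent of caterpillars killed recorded on day 7, 0–100% scale.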

[8] = tested on: adult cat fleas (Ctenocephalides felis); assay: Ctenocephalides felis in-vitro contact test, adult cat flea; settings: application rate 5 μg/cm^2 (=500 g/ha), after 48 hours, read-out: activity (efficacy: fleas dead or moribund)
Procedure: Ctenocephalides felis—In-Vitro Contact Tests Adult Cat Flea
9 mg compound is solved in 1 mL acetone and diluted with acetone to the desired concentration. 250 μL of the test solution is filled in 25 mL glass test tubes and homogeneously distributed on the inner walls by rotation and tilting on a shaking device (2 h at 30 rpm). With a compound concentration of 900 ppm, an inner surface of 44.7 cm^2 and a homogeneous distribution, a dose of […] is achieved.
After the solvent has evaporated, each test tube is filled with 5-10 adult cat fleas (Ctenocephalides felis), closed with a perforated lid and incubated in a lying position at room temperature and relative humidity. After 48 hours efficacy is determined. The fleas are patted on the ground of the tubes and are incubated on a heating plate at 45-50° C. for at most 5 minutes. Immotile or uncoordinated moving fleas, which are not able to escape the heat by climbing upwards, are marked as dead or moribund.
An efficacy of 100% means all fleas are dead or moribund; 0% means no fleas are dead or moribund.

[9] = tested on: green peach aphid (Myzus persicae); assay: Myzus persicae spray test; settings: 120 h, after 5 days; for mortality at 100 g/ha: application rate 100 g/ha; for mortality at 500 g/ha: application rate 500 g/ha
Procedure: Myzus persicae—Spray Test
Solvent: 78.0 parts by weight acetone • 1.5 parts by weight dimethylformamide
Emulsifier: alkylarylpolyglycol ether
To produce a suitable preparation of active compound, 1 part by weight of active compound is mixed with the stated amount of solvents and is diluted with water, containing an emulsifier concentration of 1000 ppm, to the desired concentration. Further test concentrations are prepared by dilution with emulsifier containing water.
Chinese cabbage (Brassica pekinensis) leaf disks infected with all instars of the green peach aphid (Myzus persicae), are sprayed with a preparation of the active ingredient of the desired concentration.
After 5 days mortality in % is determined. 100% means all aphids have been killed and 0% means none of the aphids have been killed.

[10] = tested on: larvae of the southern green stink bug (Nezara viridula); assay: Nezara viridula spray test; settings: 96 h, after 4 days; for mortality at 100 g/ha: application rate 100 g/ha; for mortality at 500 g/ha: application rate 500 g/ha
Method in brief: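 Larva-infested barley (Hordeum vulgare) plants received a spray of test solution prepared from an acetone/DMF concentrate diluted in emulsifier-containing water (1000 ppm). Percent kill read 4 days later; 0% means no stink bugs dead.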

Compound | pest or weed control at 100 g/ha [1] | pest or weed control at 500 g/ha [1] | pest or weed control at 4 pg [2] | pest or weed control at 0.02 mg [2] | mortality at 100 ppm [3] | pest or weed control at 100 g/ha [4] | pest or weed control at 5 µg/cm2, 500 g/ha [4] | pest or weed control at 100 g/ha [5] | mortality at 4 ppm [6] | mortality at 100 g/ha [7] | pest or weed control at 5 µg/cm2 [8] | mortality at 100 g/ha [9] | mortality at 100 g/ha [10] | mortality at 500 g/ha [9] | mortality at 500 g/ha [10]
CC(C)c1nc([C@H](C)NC(=O)c2cc(Cl)cc(S(C)(=O)=O)c2)n(-c2ccc(C#N)cn2)n1 [I-16] | 100% | 100% | 100% | 100% | 100% | 100% | 100% | 80% | 100% | 100% |  |  |  |  | 
CC(NC(=O)c1cc(Cl)cc(S(C)(=O)=O)c1)c1nc(Cl)nn1-c1ccc(C#N)cn1 (stereo not drawn) [I-32] | 100% | 100% | 100% | 100% | 100% |  |  |  |  | 100% | 100% |  |  |  | 
CC(NC(=O)c1cc(Cl)cc(S(C)(=O)=O)c1)c1nc(I)nn1-c1ncccn1 (stereo not drawn) [I-41] |  |  |  |  |  |  |  | 100% | 100% |  |  | 100% | 100% |  | 
CC(NC(=O)c1cc(OC(F)(F)F)cc(C2CC2)c1)c1nc(I)nn1-c1ncccn1 (stereo not drawn) [I-43] | 100% | 100% |  |  |  | 100% | 100% | 100% | 100% | 100% |  | 100% | 100% |  | 
COc1nc([C@H](C)NC(=O)c2cc(Cl)cc(S(=O)(=O)C(F)(F)F)c2)n(-c2ccc(Cl)cn2)n1 [I-52] |  |  |  |  |  |  |  |  |  | 83% | 90% |  |  |  | 
C[C@H](NC(=O)c1cc(F)cc(S(C)(=O)=O)c1)c1nc(C2CC2)nn1-c1ccc(C#N)cn1 [I-63] |  |  |  |  |  |  |  | 100% | 100% | 100% |  | 90% | 100% |  | 
C[C@H](NC(=O)c1cc(F)cc(S(C)(=O)=O)c1)c1nc(C2CC2)nn1-c1ncc(Cl)cn1 [I-66] |  |  |  |  |  |  |  | 100% | 100% | 100% |  | 100% | 100% | 100% | 100%
C[C@H](NC(=O)c1cc(C(F)F)cc(S(C)(=O)=O)c1)c1nc(C2CC2)nn1-c1ncc(Cl)cn1 [I-67] |  |  |  |  |  |  |  | 100% | 100% | 100% |  | 90% | 100% | 100% | 100%
